According to patent US20190249218A1, “Method, Medium and Kit for Detecting Multiple Aminoglycoside Resistance Including 16S rRNA Methylase Mediated Resistance in Gram-Negative Bacteria” (priority 2016, published 2019):
≈ marks a conversion by molar mass, not a printed value. Where two headings read alike, the source gives them in different places.

Tested on: E. coli
Assay: MIC by broth microdilution
Assay type: cell-based, Escherichia coli
Conditions: for MIC: Escherichia coli, read-out: MIC
Protocol: MICs of amikacin and gentamicin were determined using the broth microdilution method in cation-adjusted Mueller-Hinton broth, as recommended by the Clinical Laboratory Standard Institute (CLSI) guidelines (8). Amikacin and gentamicin sulfate (Fluorochem, Dertbyshire, UK) were tested over a range of dilutions from 0.25 to 256 μg/ml. A final inoculum of 5.10^5 CFU/ml of each strain was distributed in the 96 wells tray (Sarstedt, Ntimbrecht, Germany). All experiments were repeated in triplicate and E. coli ATCC 25922 was used as quality control. According to the CLSI breakpoints (9), Enterobacteriaceae isolates with gentamicin MICs≤4 and amikacin MICs≤16 mg/L were categorized as susceptible, while those with gentamicin MICs≥16 and amikacin MICs≥64 mg/L were categorized as resistant.
MICs of amikacin and gentamicin were determined as described above in Example 1.

[1] = isolate 92/31, E. coli, AAC(3)-IV
[2] = isolate 390, E. coli, AAC(3)-IV
[3] = isolate 1054 (first entry), E. coli, AAC(6′)-I
[4] = isolate 1054 (second entry), E. coli, AAC(6′)-I
[5] = isolate 1488, E. coli, AAC(6′)-II
[6] = isolate 4000, E. coli, APH(3′)-I + AAC(3)-V
[7] = isolate 22089, E. coli, AAC(3)-I + AAC(3)-V
[8] = isolate 122971, E. coli, ANT(2″)
[9] = isolate R1436, E. coli, AG susceptible
[10] = isolate R1438, E. coli, AG susceptible
[11] = isolate R4100, E. coli TOP10, npmA
[12] = isolate RP4, E. coli, APH(3′)-Ib
[13] = isolate pFCT1163, E. coli, AAC(6′)-Ia
[14] = isolate pFCT4392, E. coli, AAC(3)-Ia

Work on `NCC[C@H](O)C(=O)N[C@@H]1C[C@H](N)[C@@H](O[C@H]2O[C@H](CN)[C@@H](O)[C@H](O)[C@H]2O)[C@H](O)[C@H]1O[C@H]1O[C@H](CO)[C@@H](O)[C@H](N)[C@H]1O` [Amikacin] yielded an MIC (ATCC25922, isolate FR136, E. coli ATCC 25922, AG susceptible) of 2 µg/mL (≈ 3.42 µM), an MIC (ATCC25922, strain R2298, E. coli ATCC 25922, susceptible) of 2 µg/mL (≈ 3.42 µM) and an MIC (ATCC35218, isolate R2278, E. coli ATCC 35218, AG susceptible) of 4 µg/mL (≈ 6.83 µM). For the same compound, the MIC (ATCC35218, strain R2278, E. coli ATCC 35218, susceptible) was 4 µg/mL (≈ 6.83 µM), the MIC (isolate 62Carb, E. coli, rmtB) was > 256 µg/mL and the MIC [1] was 4 µg/mL (≈ 6.83 µM). It also gave an MIC (isolate 97, E. coli, AAC(3)-IV) of 2 µg/mL (≈ 3.42 µM), an MIC [2] of 16 µg/mL (≈ 27.3 µM) and an MIC [3] of 8 µg/mL (≈ 13.7 µM). It also gave an MIC [4] of 16 µg/mL (≈ 27.3 µM), an MIC [5] of 4 µg/mL (≈ 6.83 µM) and an MIC [6] of 4 µg/mL. For the same compound, the MIC [7] was 16 µg/mL, the MIC [8] was 4 µg/mL (≈ 6.83 µM) and the MIC (isolate E28, E. coli, rmtB) was > 256 µg/mL. The MIC (isolate R107, E. coli, rmtB) was > 256 µg/mL, the MIC (isolate R1012, E. coli, armA) was > 256 µg/mL and the MIC [9] was 2 µg/mL (≈ 3.42 µM). The MIC [10] was 2 µg/mL (≈ 3.42 µM), the MIC [11] was 128 µg/mL (≈ 219 µM) and the MIC [12] was 1 µg/mL (≈ 1.71 µM). It also gave an MIC [13] of 128 µg/mL (≈ 219 µM), an MIC [14] of 1 µg/mL (≈ 1.71 µM) and an MIC (isolate pWP701, E. coli, AAC(3)-IV) of 1 µg/mL (≈ 1.71 µM). The MIC (strain 62Carb, E. coli, rmtB) was > 512 µg/mL, the MIC (strain 92/31, E. coli, AAC(3)-IV) was 4 µg/mL (≈ 6.83 µM) and the MIC (strain 97, E. coli, AAC(3)-IV) was 2 µg/mL (≈ 3.42 µM). For the same compound, the MIC (strain 390, E. coli, AAC(3)-IV) was 16 µg/mL (≈ 27.3 µM), the MIC (strain 1054a, E. coli, AAC(6′)-I) was 8 µg/mL (≈ 13.7 µM) and the MIC (strain 1054b, E. coli, AAC(6′)-I) was 16 µg/mL (≈ 27.3 µM). It also gave an MIC (strain 1488, E. coli, AAC(6′)-II) of 4 µg/mL (≈ 6.83 µM), an MIC (strain 4000, E. coli, APH(3′)-I + AAC(3)-V) of 4 µg/mL and an MIC (strain 22089, E. coli, AAC(3)-I + AAC(3)-V) of 16 µg/mL. For the same compound, the MIC (strain 122971, E. coli, ANT(2″)) was 4 µg/mL (≈ 6.83 µM), the MIC (strain E28, E. coli, rmtB) was > 512 µg/mL and the MIC (strain R107, E. coli, rmtB) was > 512 µg/mL. The MIC (strain R1012, E. coli, armA) was > 512 µg/mL, the MIC (strain R1436, E. coli, susceptible) was 2 µg/mL (≈ 3.42 µM) and the MIC (strain R1438, E. coli, susceptible) was 2 µg/mL (≈ 3.42 µM). It also gave an MIC (strain R4100, E. coli, npmA) of 258 µg/mL (≈ 441 µM), an MIC (strain RP4, E. coli, APH(3′)-Ib) of 1 µg/mL (≈ 1.71 µM) and an MIC (strain pFCT1163, E. coli, AAC(6′)-Ia) of 128 µg/mL (≈ 219 µM). The MIC (strain pFCT4392, E. coli, AAC(3)-Ia) was 1 µg/mL (≈ 1.71 µM), the MIC (strain pWP701, E. coli, AAC(3)-IV) was 1 µg/mL (≈ 1.71 µM) and the “Amikacin Phenotype” value (isolate 62Carb, E. coli, rmtB) was “R (amikacin MICs≥64 mg/L were categorized as resistant)”. The “Amikacin Phenotype” value [1] was “S (amikacin MICs≤16 mg/L were categorized as susceptible)”, the “Amikacin Phenotype” value (isolate 97, E. coli, AAC(3)-IV) was “S (amikacin MICs≤16 mg/L were categorized as susceptible)” and the “Amikacin Phenotype” value [2] was “S (amikacin MICs≤16 mg/L were categorized as susceptible)”. For the same compound, the “Amikacin Phenotype” value [3] was “S (amikacin MICs≤16 mg/L were categorized as susceptible)”, the “Amikacin Phenotype” value [4] was “S (amikacin MICs≤16 mg/L were categorized as susceptible)” and the “Amikacin Phenotype” value [5] was “S (amikacin MICs≤16 mg/L were categorized as susceptible)”. The “Amikacin Phenotype” value [6] was “S (amikacin MICs≤16 mg/L were categorized as susceptible)”, the “Amikacin Phenotype” value [7] was “S (amikacin MICs≤16 mg/L were categorized as susceptible)” and the “Amikacin Phenotype” value [8] was “S (amikacin MICs≤16 mg/L were categorized as susceptible)”. For the same compound, the “Amikacin Phenotype” value (isolate E28, E. coli, rmtB) was “R (amikacin MICs≥64 mg/L were categorized as resistant)”, the “Amikacin Phenotype” value (isolate FR136, E. coli ATCC 25922, AG susceptible) was “S (amikacin MICs≤16 mg/L were categorized as susceptible)” and the “Amikacin Phenotype” value (isolate R107, E. coli, rmtB) was “R (amikacin MICs≥64 mg/L were categorized as resistant)”. For the same compound, the “Amikacin Phenotype” value (isolate R262, E. coli, rmtC) was “R (amikacin MICs≥64 mg/L were categorized as resistant)”, the “Amikacin Phenotype” value (isolate R451, E. coli, rmtC) was “R (amikacin MICs≥64 mg/L were categorized as resistant)” and the “Amikacin Phenotype” value (isolate R989, E. coli, armA) was “R (amikacin MICs≥64 mg/L were categorized as resistant)”. The “Amikacin Phenotype” value (isolate R990, E. coli, rmtB) was “R (amikacin MICs≥64 mg/L were categorized as resistant)”, the “Amikacin Phenotype” value (isolate R1012, E. coli, armA) was “R (amikacin MICs≥64 mg/L were categorized as resistant)” and the “Amikacin Phenotype” value [9] was “S (amikacin MICs≤16 mg/L were categorized as susceptible)”. The “Amikacin Phenotype” value [10] was “S (amikacin MICs≤16 mg/L were categorized as susceptible)”, the “Amikacin Phenotype” value (isolate R2278, E. coli ATCC 35218, AG susceptible) was “S (amikacin MICs≤16 mg/L were categorized as susceptible)” and the “Amikacin Phenotype” value [11] was “R (amikacin MICs≥64 mg/L were categorized as resistant)”. The “Amikacin Phenotype” value [12] was “S (amikacin MICs≤16 mg/L were categorized as susceptible)”, the “Amikacin Phenotype” value [13] was “R (amikacin MICs≥64 mg/L were categorized as resistant)” and the “Amikacin Phenotype” value [14] was “S (amikacin MICs≤16 mg/L were categorized as susceptible)”.
